{
  "source": "patent US20170354617A1",
  "about": "“METHOD OF TREATING OR PREVENTING OSTEOPOROSIS” (Research Foundation of the City University of New York, priority 2016, published 2017)",
  "key": {"rats": {"system": "rats", "conditions": "injected at a dose of 1 mg per kg; cited from earlier work"}, "[1]": {"system": "aged mouse femur, age-related bone loss", "assay": "Age-related (Type 2) osteoporosis in aged mice, one year treatment", "assay_type": "in vivo", "description": "A one year old mouse is biologically similar to a 45-50 year-old human. Starting at 1 year of age, methylene blue was administered in the cage water supply (0.2% by weight) for one year to three male mice. Control mice received normal water. Animals were free to consume water and food ad libitum. Bones were examined when the mice were two years old, which is similar to a 75-80 year-old person.\nFIG. 3A is a micro-Xray image of aged mouse femur from mouse with no treatment. Large holes or pores are clearly seen in the bone, as is thinning of the bone cortex. This is normal age-related osteoporosis.\nFIG. 3B is a micro-Xray image of aged mouse femur from mouse after one year duration methylene blue treatment. No increases in porosity or cortex thinning are seen."}, "[2]": {"system": "chronic renal calculus disease", "conditions": "65 mg taken three times a day; cited from earlier work"}, "[3]": {"system": "bipolar manic-depressive patients", "conditions": "300 mg per day for one year; cited from earlier work"}, "[4]": {"system": "estrogen-deficient (OVX) mice, post-menopausal type bone loss", "assay": "Ovariectomy (OVX) estrogen-depletion bone loss prevention in mice", "assay_type": "in vivo", "description": "Young adult mice were subjected to surgical ovariectomy (OVX) to deplete estrogen. This is widely accepted model for inducing post-menopausal type bone loss. It is the standard used by pharmaceutical companies in preclinical trials and is required by the FDA to confirm efficacy of an agent in preventing bone loss. Seven sham control mice received a surgical incision and wound closure but ovaries were left intact. Mice were return to their cages after surgery. Six “MB” mice received methylene blue in the cage water (0.2% in cage water supply starting 24 hours before surgery) which they were allowed to consume ad libitum for the duration of the study (three months); the remainder of the mice received normal cage water. Mice were sacrificed at three months post-OVX and bones were examined using microCT. The results are depicted in FIG. 2A and FIG. 2B which show bone changes with estrogen loss (OVX) were prevented by systemic treatment with methylene blue (MB). FIG. 2B is a graph of Bone Volume over Total Volume (BV/TV) for the groups of mice."}},
  "data": [
    {"smiles": "CN(C)c1ccc2nc3ccc(=[N+](C)C)cc-3sc2c1", "note": "[methylene blue]", "values": [
      {"measurement": "Brain oxidative metabolism and memory retention", "setting": "rats", "value": "improved"},
      {"measurement": "Bone porosity compared to bones from control mice", "setting": "[1]; 0.2% by weight in cage water for one year from 1 year of age, male mice, femur examined at two years old, FIG. 4", "value": "about half"},
      {"measurement": "Cortex thinning (micro-Xray image)", "setting": "[1]; 0.2% by weight in cage water for one year, aged mouse femur, FIG. 3B", "value": "prevented the cortex or shell of the bone from thinning"},
      {"measurement": "Management of chronic renal calculus disease", "setting": "[2]", "value": "useful"},
      {"measurement": "Depression compared with placebo", "setting": "[3]", "value": "significantly less depressed"},
      {"measurement": "Bone loss, Bone Volume over Total Volume (BV/TV)", "setting": "[4]; 0.2% in cage water ad libitum, three months post-OVX, microCT of distal femur, OVX without treatment approx. 40% reduction in bone volume", "value": "almost completely prevented"},
      {"measurement": "Bone mechanical property", "setting": "[4]; mice model of estrogen removal", "value": "maintained"},
      {"measurement": "Bone mineral density", "setting": "[4]; mice model of estrogen removal", "value": "maintained"},
      {"measurement": "Cancellous bone loss after estrogen removal", "setting": "[4]; mice model of estrogen removal", "value": "prevent cancellous bone loss"},
      {"measurement": "Osteocyte apoptosis", "setting": "[4]; mice model of estrogen removal", "value": "prevent osteocyte apoptosis"},
      {"measurement": "Oxidative stress in bone cells", "setting": "[4]; mice model of estrogen removal", "value": "protect bone cells from oxidative stress"}
    ]}
  ]
}
